# Measured values: ChEMBL document CHEMBL5331099, “Chemical scaffold recycling: Structure-guided conversion of an HIV integrase inhibitor into a potent influenza virus RNA-dependent RNA polymerase inhibitor designed to minimize resistance potential” (Eur J Med Chem, 2023)
# Tests used:
# [1] = Inhibition of Influenza A virus A/California/04/2009 (H1N1) N-terminal his tagged domain of PA endonuclease expressed in Escherichia coli BL21 (DE3) cells preincubated with enzyme for 1 hr followed by RNA addition and measured after 90 mins by MALDI-FTICR-MS analysis
# [2] = Binding affinity to Influenza A virus A/California/04/2009 (H1N1) wild type N-terminal his tagged domain of PA endonuclease expressed in Escherichia coli BL21 (DE3) cells assessed as dissociation constant by MST assay
Compound,IC50 [1] [nM],Kd [2] [nM]
O=C1c2c(O)c(=O)ccn2N([C@@H]2c3ccccc3SCc3c2ccc(F)c3F)C2COCCN12 (stereo partly drawn),50,6
CC(C)(NC(=O)OCc1ccccc1)c1nc(O)c(O)c(C(=O)NCCc2ccc(F)cc2)n1,6450,–
O=C1NCCc2cccc(c2)OC/C=C/COc2cccc(c2)-c2nc1c(O)c(=O)[nH]2,12500,–
O=C1NCCc2cccc(c2)OCCCCOc2cccc(c2)-c2nc1c(O)c(=O)[nH]2,> 20000,–
COc1cc(CCNC(=O)c2nc(-c3ccccc3C(F)(F)F)[nH]c(=O)c2O)ccc1O,270,–
CC(C)(NC(=O)OCc1ccccc1)c1nc(C(=O)NCc2ccc(F)cc2)c(O)c(=O)[nH]1,> 20000,–
O=C1NCCc2cccc(c2)OC/C=C\COc2cccc(c2)-c2nc1c(O)c(=O)[nH]2,4960,–
CC(C)(NC(=O)OCc1ccccc1)c1nc(C(=O)NCCn2cnc3c(N)ncnc32)c(O)c(=O)[nH]1,1620,–
Nc1ncnc2c1ncn2CCNC(=O)c1nc(-c2ccccc2C(F)(F)F)[nH]c(=O)c1O,290,18
COc1cnccc1CCNC(=O)c1nc(-c2cccc(C(F)(F)F)c2)[nH]c(=O)c1O,4530,–
COc1cnccc1CCNC(=O)c1nc(-c2ccccc2C(F)(F)F)[nH]c(=O)c1O,420,54
COc1cnccc1CCNC(=O)c1nc(-c2ccccc2C)[nH]c(=O)c1O,390,–
Cc1nnc(C(=O)NC(C)(C)c2nc(C(=O)NCc3ccc(F)cc3)c(O)c(=O)n2C)o1 [RALTEGRAVIR],> 20000,–
COc1cnccc1CCNC(=O)c1nc(-c2c(F)cccc2F)[nH]c(=O)c1O,1110,–
COc1cnccc1CCNC(=O)c1nc(Cc2ccccc2C(F)(F)F)[nH]c(=O)c1O,> 20000,–
COc1cnccc1CCNC(=O)c1nc(-c2ccccc2F)[nH]c(=O)c1O,820,–
COc1cnccc1CCNC(=O)c1nc(-c2ccccc2)[nH]c(=O)c1O,1220,–
COc1cnccc1CCNC(=O)c1nc(-c2ccc(C(F)(F)F)cc2)[nH]c(=O)c1O,> 20000,–
COc1cnccc1CCNC(=O)c1nc(C(C)(C)NC(=O)OCc2ccccc2)[nH]c(=O)c1O,1970,–
COc1cc(CCNC(=O)c2nc(C(C)(C)NC(=O)OCc3ccccc3)[nH]c(=O)c2O)ccc1O,620,–
